Molecules are shown by their SMILES. Values after ≈ are worked out from the molar mass of the structure shown.

The source of these data is patent publication US20130259935A1, “PHARMACEUTICAL COMPOSITIONS COMPRISING GLIMEPIRIDE AND POLYETHYLENE GLYCOL CASTOR OIL” (LEK PHARMACEUTICALS D.D., priority 2010, published 2013).

The series can be described thus: Solubility of glimepiride, pH-dependent. In kind it is physicochemical. Particulars: for solubility: phosphate buffer, thermodynamic from solid. On the procedure:
Glimepiride has very low and pH-dependent solubility. […] In media with pH around 7 the solubility of glimepiride is 0.001 mg/mL. At a pH 8, the solubility of glimepiride only slightly increases to 0.03 mg/mL. […] Being insoluble according to the present invention means that the solubility in water is lower than 10 mg/mL. […] Solubility as meant herein is measured using USP apparatus 2 with agitation at 75 RPM. The dissolution medium is phosphate buffer maintained at 37° C. Dissolution as meant herein is measured using HPLC.

For `CCC1=C(C)CN(C(=O)NCCc2ccc(S(=O)(=O)NC(=O)N[C@H]3CC[C@H](C)CC3)cc2)C1=O` [glimepiride, Glimepiride], the solubility was 30 µg/mL (≈ 61.1 µM) (37 °C, pH 8, aqueous buffer) and less than 1 µg/mL (aqueous buffer, acidic medium, 37° C.). Also, where the note is “water, insoluble means lower than 10 mg/mL”, the “solubility in water (in words)” value is listed as “insoluble in water”.

As a reminder, the solubility is the concentration that dissolves in the medium under given conditions.
